# Legend:
# ACHN = test: NCI drug screen, ACHN; type: cell-based, human; details: ACHN (Renal Cancer); 1.00E−5 Molar
# Experimental: (§1) In brief, cellular protein levels were determined after 48 hours of drug exposure by sulforhodamine B colorimetry. Through the use of a time 0 cell control, the cell growth can be determined for each cell line thus allowing calculations of the 50% growth inhibitory concentration (GI50), the total growth inhibition (TGI), and the 50% lethal concentration (LC50). Comparison to plates not exposed to drug permits determination of concentration and times of exposure conferring 50% net growth inhibition (GI50), TGI, and 50% cell kill (LC50).
# (§2) The screening system in United State National Cancer Institute (NCI) is consisted of 60 kinds of different human cancer cells, which can be used to assay the growth-inhibiting ability or cell toxicity of a compound against various cancer and tumor at a certain concentration.
# OVCAR-5 = test: NCI drug screen, OVCAR-5; type: cell-based, human; details: OVCAR-5 (Ovarian Cancer); 1.00E−5 Molar
# Experimental: as §1, §2
# COLO 205 = test: NCI drug screen, COLO 205; type: cell-based, human; details: COLO 205 (Colon Cancer); 1.00E−5 Molar
# Experimental: as §1, §2
# KM12 = test: NCI drug screen, KM12; type: cell-based, human; details: KM12 (Colon Cancer); 1.00E−5 Molar
# Experimental: as §1, §2
# A549/ATCC = test: NCI drug screen, A549/ATCC; type: cell-based, human; details: A549/ATCC (Non-Small Cell Lung Cancer); 1.00E−5 Molar
# Experimental: as §1, §2
# BT-549 = test: NCI drug screen, BT-549; type: cell-based, human; details: BT-549 (Breast Cancer); 1.00E−5 Molar
# Experimental: as §1, §2
# NCI drug screen, A489 = type: cell-based, human; details: A489 (Renal Cancer); 1.00E−5 Molar
# Experimental: as §1, §2
# SK-OV-3 = test: NCI drug screen, SK-OV-3; type: cell-based, human; details: SK-OV-3 (Ovarian Cancer); 1.00E−5 Molar
# Experimental: as §1, §2
# OVCAR-4 = test: NCI drug screen, OVCAR-4; type: cell-based, human; details: OVCAR-4 (Ovarian Cancer); 1.00E−5 Molar
# Experimental: as §1, §2
# [1] = system: 60 kinds of different human cancer cells; test: NCI in vitro 60-cell Drug Screen, whole panel; type: cell-based; details: 1.00E−5 Molar; for Growth Percent, Mean: mean over tested cell lines; for growth-inhibiting effect against cancer cells, by cancer type: NCI's screen
# Experimental: as §1
# From the data analysis it follows that approximately 95% of the actives (potent anticancer drugs) from the 60 cell line screen can be identified. By these criteria, five compounds (each with its certification number, refer to FIG. 4) of the invention were reported that having anticancer activity.
# as §2
# 786-0 = test: NCI drug screen, 786-0; type: cell-based, human; details: 786-0 (Renal Cancer); 1.00E−5 Molar
# Experimental: as §1, §2
# HOP-62 = test: NCI drug screen, HOP-62; type: cell-based, human; details: HOP-62 (Non-Small Cell Lung Cancer); 1.00E−5 Molar
# Experimental: as §1, §2
# NCI-H322M = test: NCI drug screen, NCI-H322M; type: cell-based, human; details: NCI-H322M (Non-Small Cell Lung Cancer); 1.00E−5 Molar
# Experimental: as §1, §2
# SR = test: NCI drug screen, SR; type: cell-based, human; details: SR (Leukemia); 1.00E−5 Molar
# Experimental: as §1, §2
# MDA-MB-231/ATCC = test: NCI drug screen, MDA-MB-231/ATCC; type: cell-based, human; details: MDA-MB-231/ATCC (Breast Cancer); 1.00E−5 Molar
# Experimental: as §1, §2
# MALME-3M = test: NCI drug screen, MALME-3M; type: cell-based, human; details: MALME-3M (Melanoma); 1.00E−5 Molar
# Experimental: as §1, §2
# T-47D = test: NCI drug screen, T-47D; type: cell-based, human; details: T-47D (Breast Cancer); 1.00E−5 Molar
# Experimental: as §1, §2
# SK-MEL-2 = test: NCI drug screen, SK-MEL-2; type: cell-based, human; details: SK-MEL-2 (Melanoma); 1.00E−5 Molar
# Experimental: as §1, §2
# hTERT = test: Secreted alkaline phosphatase (SEAP) assay, PhTERT-SEAP (H1299); type: cell-based; details: Homo sapiens, 24 hours; for activity at 1 µM: NCI-H1299, Conc. 1 μM, read-out: Relative SEAP activity (%); for activity at 10 µM: NCI-H1299, Conc. 10 μM; for activity at 10 µM / activity at 100 µM: read-out: Relative SEAP activity (%) (converted); for activity at 100 µM: NCI-H1299, Conc. 100 μM
# Summary of the method: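 Stable H1299 clone carrying the −3338 to +1 bp hTERT promoter upstream of SEAP; ~10^4 cells/well treated with varying drug amounts for 24 h at 37° C. Media heat-treated 65° C. 10 min, mixed with diethanolamine/MgCl2/L-homoarginine buffer and 12 mM p-nitrophenyl phosphate final; SEAP activity taken as rate of A405 increase.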
# PC-3 = test: NCI drug screen, PC-3; type: cell-based, human; details: PC-3 (Prostate Cancer); 1.00E−5 Molar
# Experimental: as §1, §2
# U251 = test: NCI drug screen, U251; type: cell-based, human; details: U251 (CNS Cancer); 1.00E−5 Molar
# Experimental: as §1, §2
# UACC-257 = test: NCI drug screen, UACC-257; type: cell-based, human; details: UACC-257 (Melanoma); 1.00E−5 Molar
# Experimental: as §1, §2
# NCI-H226 = test: NCI drug screen, NCI-H226; type: cell-based, human; details: NCI-H226 (Non-Small Cell Lung Cancer); 1.00E−5 Molar
# Experimental: as §1, §2
# DU145 = test: NCI drug screen, DU145; type: cell-based, human; details: DU145 (Prostate Cancer); 1.00E−5 Molar
# Experimental: as §1, §2
# SK-MEL-28 = test: NCI drug screen, SK-MEL-28; type: cell-based, human; details: SK-MEL-28 (Melanoma); 1.00E−5 Molar
# Experimental: as §1, §2
Structure (SMILES),Growth Percent (ACHN) [%],Growth Percent (OVCAR-5) [%],Growth Percent (KM12) [%],Growth Percent (BT-549) [%],"Growth Percent (NCI drug screen, A489) [%]",Growth Percent (OVCAR-4) [%],"Growth Percent, Mean [1] [%]",Growth Percent (786-0) [%],Growth Percent (HOP-62) [%],Growth Percent (NCI-H322M) [%],Growth Percent (MDA-MB-231/ATCC) [%],Growth Percent (MALME-3M) [%],Growth Percent (SK-MEL-2) [%],activity at 1 µM (hTERT) [%],activity at 10 µM (hTERT) [%],activity at 100 µM (hTERT) [%],Growth Percent (U251) [%],Growth Percent (NCI-H226) [%],Growth Percent (DU145) [%],Growth Percent (SK-MEL-28) [%],also measured
"Cc1ccc(C(=O)Nc2ccc3c(c2NC(=O)c2ccc(C)cc2)C(=O)c2ccccc2C3=O)cc1 [CC-04, 1,2-bis-(4-methylbenzamido)-anthraquinone]",112.43,110.18,94.21,95.39,124.08,104.32,96.19,116.17,105.23,97.74,93.29,127.16,100.65,108 ± 9.03,97.1,30.9,91.73,91.14,95.93,99.46,Growth Percent (COLO 205): 108.57%; Growth Percent (A549/ATCC): 90.46%; Growth Percent (SK-OV-3): 109.62%; Growth Percent (SR): 87.69%; Growth Percent (T-47D): 100.00%; Growth Percent (PC-3): 82.91%; Growth Percent (UACC-257): 98.46%
"Cc1ccc(C(=O)Nc2c(NC(=O)CCl)ccc3c2C(=O)c2ccccc2C3=O)cc1 [CC-12, 1-(4-methylbenzamido)-2-(chloroacetamido)-anthraquinone]",21.92,109.55,−19.53,28.19,123.78,34.52,−1.96,11.30,−28.62,95.05,24.67,−22.41,52.00,110 ± 2.99,-2.49,-2.47,−44.02,−25.30,−97.56,−31.94,"Growth Percent (COLO 205): −53.43%; Growth Percent (A549/ATCC): −81.71%; Growth Percent (SK-OV-3): 106.24%; growth-inhibiting effect against cancer cells, by cancer type [1]: exhibited growth-inhibiting effect against cancer cells such as leukemia, non-small cell lung cancer, colon cancer, central nervous system (CNS) cancer, melanoma, ovarian cancer, renal cancer, prostate cancer, breast cancer; Growth Percent (SR): −19.84%; Growth Percent (T-47D): −49.46%; Growth Percent (PC-3): 6.81%"
"O=C(CCl)Nc1ccc2c(c1NC(=O)Cc1ccccc1)C(=O)c1ccccc1C2=O [CC-23, 1-[2-(phenyl)acetylamino]-2-(chloroacetamido)-anthraquinone]",79.64,119.04,80.59,79.78,91.79,80.40,73.78,97.26,115.67,104.38,82.04,47.07,−6.49,84.8 ± 3.12,9.49,7.43,66.17,80.49,85.83,88.68,"growth-inhibiting effect against cancer cells, by cancer type [1]: could inhibit the cancer cell growth of leukemia and melanoma; Growth Percent (SR): −31.25%"
"Cc1ccc(C(=O)Nc2c(NC(=O)CN3CCCC3)ccc3c2C(=O)c2ccccc2C3=O)cc1 [CC-38, 1-(4-methylbenzamido)-2-[2-(tetrahydro-1H-1-pyrrolyl)acetylamino]-anthra quinone]",82.23,102.31,51.05,81.58,68.12,47.06,74.53,65.15,113.43,82.50,73.34,82.24,102.17,81.7 ± 4.8,59.1,3.93,82.17,90.22,91.52,92.18,Growth Percent (COLO 205): 65.60%; Growth Percent (A549/ATCC): 84.88%; Growth Percent (SK-OV-3): 82.13%; Growth Percent (T-47D): 44.33%; Growth Percent (PC-3): 75.00%; Growth Percent (UACC-257): 92.83%
